Experimental data as given in patent publication US9365583B2, “Substituted pyrazoles and uses thereof” (Genentech, Inc., priority 2013, dated 2016).

Target: T1, N-terminally GST-tagged DLK (catalytic domain amino acid 1-520) (Homo sapiens, UniProt Q12852)
T1 construct: N-terminally GST-tagged DLK (catalytic domain amino acid 1-520); purchased Carna Bioscience
T1 sequence (Q12852 1-520): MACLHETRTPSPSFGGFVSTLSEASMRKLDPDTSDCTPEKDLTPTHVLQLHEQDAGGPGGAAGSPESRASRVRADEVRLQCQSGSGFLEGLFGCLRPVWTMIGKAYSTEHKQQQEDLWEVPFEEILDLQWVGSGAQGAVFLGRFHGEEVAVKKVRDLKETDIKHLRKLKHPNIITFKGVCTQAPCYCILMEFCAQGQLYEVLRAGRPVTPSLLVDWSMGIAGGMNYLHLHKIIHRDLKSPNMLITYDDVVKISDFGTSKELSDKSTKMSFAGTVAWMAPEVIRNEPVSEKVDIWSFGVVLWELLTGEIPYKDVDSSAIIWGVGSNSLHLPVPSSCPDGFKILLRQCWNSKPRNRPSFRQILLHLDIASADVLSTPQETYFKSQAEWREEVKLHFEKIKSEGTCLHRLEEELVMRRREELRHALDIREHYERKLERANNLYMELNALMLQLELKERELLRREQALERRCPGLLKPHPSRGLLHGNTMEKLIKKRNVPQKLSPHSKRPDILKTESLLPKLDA
Assay: DLK TR-FRET inhibition assay
Type: biochemical
Conditions: 5 nM GST-DLK, 40 nM HIS-MKK4 K131M substrate, 30 μM ATP, 60 minutes at ambient temperature
Procedure: DLK TR-FRET inhibition assay: DLK kinase reactions (20 μL) containing 5 nM N-terminally GST-tagged DLK (catalytic domain amino acid 1-520) (Carna Bioscience), 40 nM N-terminally HIS-tagged MKK4 K131M substrate, and 30 μM ATP in kinase reaction buffer (50 mM HEPES, pH 7.5, 0.01% Triton X-100, 0.01% Bovine γ-Globulins, 2 mM DTT, 10 mM MgCl2 and 1 mM EGTA), and testing compound 1:3 serial diluted starting at 20 uM were incubated at ambient temperature for 60 minutes in 384 well OptiPlate (Perkin Elmer). To quench kinase reactions and detect phosphorylated MKK4, 15 μL of TR-FRET antibody mixture containing 2 nM anti-phosphorylated MKK4 labeled with Europium cryptate (Cisbio) and 23 nM anti-HIS labeled with D2 (Cisbio) in detection buffer (25 mM Tris pH 7.5, 100 mM NaCl, 100 mM EDTA, 0.01% Tween-20, and 200 mM KF) was added to the reaction mixture. The detection mixture was incubated for 3 hours at ambient temperature and the TR-FRET was detected with an EnVision multilabel plate reader (Perkin-Elmer) using the LANCE/DELFIA Dual Enh label from Perkin-Elmer (excitation filter: UV2 (TRF) 320 and emission filters: APC 665 and Europium 615).

Compound | Ki
CC(C)n1nc(-c2cnc3cnn([C@@H](C)c4ccccn4)c3c2)cc1[C@H]1[C@@H]2C[C@@H](N3CCOCC3)C[C@@H]21 [compound 32, 4-((1R,3R,5S,6r)-6-(1-isopropyl-3-(1-((S)-1-(pyridin-2-yl)ethyl)-1H-pyrazolo[4,3-b]pyridin-6-yl)-1H-pyrazol-5-yl)bicyclo[3.1.0]hexan-3-yl)morpholine] | 4.08 nM
CC(C)n1nc(-c2cnc(N)c(C(F)(F)F)c2)cc1[C@H]1[C@@H]2C[C@H](N3CCCC3=O)C[C@@H]21 [compound 35, 1-((1R,3r,5S,6r)-6-(3-(6-amino-5-(trifluoromethyl)pyridin-3-yl)-1-isopropyl-1H-pyrazol-5-yl)bicyclo[3.1.0]hexan-3-yl)pyrrolidin-2-one] | 3 nM
CC(C)n1nc(-c2cnc(N)c(C(F)(F)F)c2)cc1[C@H]1[C@@H]2C[C@H](N3CC(F)C3)C[C@@H]21 [compound 36, 5-(5-((1R,3r,5S,6r)-3-(3-fluoro-azetidin-1-yl)bicyclo[3.1.0]hexan-6-yl)-1-isopropyl-1H-pyrazol-3-yl)-3-(trifluoromethyl)pyridin-2-amine] | 1.53 nM
COC1CN([C@H]2C[C@@H]3[C@H](C2)[C@H]3c2cc(-c3cnc(N)c(OC(F)(F)F)c3)nn2C(C)C)C1 [compound 39, 5-(1-isopropyl-5-((1R,3r,5S,6r)-3-(3-methoxyazetidin-1-yl)bicyclo[3.1.0]hexan-6-yl)-1H-pyrazol-3-yl)-3-(trifluoromethoxy) pyridin-2-amine] | 2.06 nM
CC(C)n1nc(-c2cnc(N)c(OC(F)F)c2)cc1[C@H]1[C@@H]2C[C@H](N3CC(F)(F)C3)C[C@@H]21 [compound 43, 5-(5-((1R,3r,5S,6r)-3-(3,3-difluoro-azetidin-1-yl)bicyclo[3.1.0]hexan-6-yl)-1-isopropyl-1H-pyrazol-3-yl)-3-(difluoromethoxy) pyridin-2-amine] | 3.05 nM
CC(C)n1nc(-c2cnc(N)c(C(F)(F)F)c2)cc1[C@H]1[C@@H]2C[C@@H](N3CCCC3=O)C[C@@H]21 [compound 44, 1-((1R,3s,5S,6r)-6-(3-(6-amino-5-(trifluoromethyl)pyridin-3-yl)-1-isopropyl-1H-pyrazol-5-yl)bicyclo[3.1.0]hexan-3-yl)pyrrolidin-2-one] | 8.2 nM
CC(C)n1nc(-c2cnc(N)c(C(F)(F)F)c2)cc1[C@H]1[C@@H]2C[C@H](N3CCOC[C@H]3C)C[C@@H]21 [compound 45, 5-(1-isopropyl-5-((1R,3r,5S,6R)-3-((R)-3-methylmorpholino)bicyclo[3.1.0]hexan-6-yl)-1H-pyrazol-3-yl)-3-(trifluoromethyl) pyridin-2-amine] | 3.3 nM
CC(C)n1nc(-c2cnc(N)c(C(F)(F)F)c2)cc1[C@H]1[C@@H]2C[C@H](N3CCOC[C@H]3C)C[C@@H]21 [compound 46, 5-(1-isopropyl-5-((1R,3s,5S,6R)-3-((R)-3-methylmorpholino)bicyclo[3.1.0]hexan-6-yl)-1H-pyrazol-3-yl)-3-(trifluoromethyl) pyridin-2-amine] | 1.85 nM
CC(C)n1nc(-c2cnc(N)c(OC(F)(F)F)c2)cc1[C@H]1[C@@H]2C[C@@H](N(C)C3COC3)C[C@@H]21 [compound 48, 5-(1-isopropyl-5-((1R,3s,5S,6r)-3-(methyl(oxetan-3-yl)amino)bicyclo[3.1,0]hexan-6-yl)-1H-pyrazol-3-yl)-3-(trifluoromethoxy) pyridin-2-amine] | 3.1 nM
CC(C)n1nc(-c2cnc(N)c(C(F)(F)F)c2)cc1[C@H]1[C@@H]2C[C@@H](N3CC4(COC4)C3)C[C@@H]21 [compound 51, 5-(5-((1R,3s,5S,6r)-3-(2-oxa-6-azaspiro[3.3]heptan-6-yl)bicyclo [3.1.0]hexan-6-yl)-1-isopropyl-1H-pyrazol-3-yl)-3-(trifluoro-methyl)pyridin-2-amine] | 3.55 nM
CC(C)n1nc(-c2cnc(N)c(C(F)(F)F)c2)cc1[C@H]1[C@@H]2C[C@H](N3CCOCC3)C[C@@H]21 [compound 52, 5-(1-isopropyl-5-((1R,3r,5S,6r)-3-morpholinobicyclo[3.1.0]hexan-6-yl)-1H-pyrazol-3-yl)-3-(trifluoromethyl)pyridin-2-amine] | 3.97 nM
CC(C)n1nc(-c2cnc(N)c(OC(F)(F)F)c2)cc1[C@H]1[C@@H]2C[C@H](N3CC(F)(F)C3)C[C@@H]21 [compound 53, 5-(5-((1R,3r,5S,6r)-3-(3,3-difluoro-azetidin-1-yl)bicyclo[3.1.0]hexan-6-yl)-1-isopropyl-1H-pyrazol-3-yl)-3-(trifluoromethoxy) pyridin-2-amine] | 4.72 nM

More lines, in order of falling Ki, values ahead:

Ki | Compound
123 nM | CC(C)n1nc(-c2cnc3cnn([C@H](C)c4ccccn4)c3c2)cc1[C@H]1[C@@H]2C[C@H](N3CCOCC3)C[C@@H]21 [compound 33, 4-((1R3R,5S,6r)-6-(1-isopropyl-3-(1-((R)-1-(pyridin-2-yl)ethyl)-1H-pyrazolo[4,3-b]pyridin-6-yl)-1H-pyrazol-5-yl)bicyclo[3.10]hexan-3-yl)morpholine]
79.4 nM | CC(C)n1nc(-c2cnc3cnn([C@H](C)c4ccccn4)c3c2)cc1[C@H]1[C@@H]2C[C@@H](N3CCOCC3)C[C@@H]21 [compound 31, 4-((1R,3S,5S,6r)-6-(1-isopropyl-3-(1-((R)-1-(pyridin-2-yl)ethyl)-1H-pyrazolo[4,3-b]pyridin-6-yl)-1H-pyrazol-5-yl)bicyclo[3.1.0]hexan-3-yl)morpholine]
4.53 nM | CC(C)n1nc(-c2cnc(N)c(OC(F)F)c2)cc1[C@H]1[C@@H]2C[C@@H](N3CC(F)(F)C3)C[C@@H]21 [compound 42, 5-(5-((1R,3s,5S,6r)-3-(3,3-difluoroazetidin-1-yl)bicyclo[3.1.0]hexan-6-yl)-1-isopropyl-1H-pyrazol-3-yl)-3-(difluoromethoxy) pyridin-2-amine]
4.2 nM | CC(C)n1nc(-c2cnc(N)c(C(F)(F)F)c2)cc1[C@H]1[C@@H]2C[C@H](N(C)C3COC3)C[C@@H]21 [compound 49, 5-(1-isopropyl-5-((1R,3r,5S,6r)-3-(methyl(oxetan-3-yl)amino)bicyclo[3.1.0]hexan-6-yl)-1H-pyrazol-3-yl)-3-(trifluoromethyl) pyridin-2-amine]
4.19 nM | CC(C)n1nc(-c2cnc3cnn([C@@H](C)c4ccccn4)c3c2)cc1[C@H]1[C@@H]2C[C@H](N3CCOCC3)C[C@@H]21 [compound 34, 4-((1R,3S,5S,6r)-6-(1-isopropyl-3-(1-((S)-1-(pyridin-2-yl)ethyl)-1H-pyrazolo[4,3-b]pyridin-6-yl)-1H-pyrazol-5-yl)bicyclo[3.1.0]hexan-3-yl)morpholine]
4.11 nM | CC(C)n1nc(-c2cnc(N)c(OC(F)(F)F)c2)cc1[C@H]1[C@@H]2C[C@H](N(C)C3COC3)C[C@@H]21 [compound 47, 5-(1-isopropyl-5-((1R,3r,5S,6r)-3-(methyl(oxetan-3-yl)amino)bicyclo[3.1.0]hexan-6-yl)-1H-pyrazol-3-yl)-3-(trifluoromethoxy) pyridin-2-amine]
3.59 nM | CC(C)n1nc(-c2cnc(N)c(C(F)(F)F)c2)cc1[C@H]1[C@@H]2C[C@H](N3CCC3)C[C@@H]21 [compound 30, 5-(5-((1R,3r,5S,6r)-3-(azetidin-1-yl)bicyclo[3.1.0]hexan-6-yl)-1-isopropyl-1H-pyrazol-3-yl)-3-(trifluoromethyl)pyridin-2-amine]
2.83 nM | CC(C)n1nc(-c2cnc(N)c(C(F)(F)F)c2)cc1[C@H]1[C@@H]2C[C@@H](N(C)C3COC3)C[C@@H]21 [compound 50, 5-(1-isopropyl-5-((1R,3s,5S,6r)-3-(methyl(oxetan-3-yl)amino)bicyclo[3.1.0]hexan-6-yl)-1H-pyrazol-3-yl)-3-(trifluoromethyl) pyridin-2-amine]
2.37 nM | CC(C)n1nc(-c2cnc(N)c(C(F)(F)F)c2)cc1[C@H]1[C@@H]2C[C@@H](N3CC(F)C3)C[C@@H]21 [compound 37, 5-(5-((1R,3s,5S,6r)-3-(3-fluoro-azetidin-1-yl)bicyclo[3.1.0]hexan-6-yl)-1-isopropyl-1H-pyrazol-3-yl)-3-(trifluoromethyl)pyridin-2-amine]
1.45 nM | COC1CN([C@@H]2C[C@@H]3[C@H](C2)[C@H]3c2cc(-c3cnc(N)c(OC(F)(F)F)c3)nn2C(C)C)C1 [compound 38, 5-(1-isopropyl-5-((1R,3s,5S,6r)-3-(3-methoxyazetidin-1-yl)bicyclo[3.1.0]hexan-6-yl)-1H-pyrazol-3-yl)-3-(trifluoromethoxy) pyridin-2-amine]
